Results: US7635423B2, “Redox potential mediated, heterogeneous, carbon nanotube biosensing” (E. I. du Pont de Nemours and Company, priority 2004, dated 2009)
Values joined by “and” are separate entries in the source; they are usually repeats but may differ in a detail not shown here. Identical values can stand only once. Counter-ions that a name gives are not always drawn. Like-named read-outs stand apart in the source and are kept apart here.

What was measured:
[1] = test system: Trametes versicolor laccase; assay: Laccase inhibitor kinetics: rate of ABTS^−2 oxidation at varied inhibitor and substrate concentrations; type: biochemical
Procedure: High potential quinones/quinols were screened to identify those with characteristics that would be suitable for use as an inhibitor of laccase, to be used in an activity switch.
Compounds were evaluated by varying the concentrations of inhibitor and substrate (ABTS^−2) and measuring under each condition the rate of ABTS^−2 oxidation. […] Tetrachloro-o-quinol and tetrafluoro-o-quinol, shown in Diagram I, had Kds, of 7-9 μM and 2.5 μM, respectively, as determined from the data in FIG. 20.
[…]

[2] = test system: Trametes versicolor laccase; assay: Laccase assay: ABTS^−2 oxidation followed at 436 nm, with and without NaF; type: biochemical; details: 1 mM NaF; 5 mM ABTS^−2; 50 mM Glycine pH 3.0
Procedure: A stock solution of Trametes versicolor laccase (4.8 mg/ml) was diluted 200,000-fold into 50 mM Glycine, pH 3.0. At time zero, ABTS^−2 (2,2′-azino-bis(3-ethylbenzthiazoline-6-sulfonate) diammonium salt was added at a concentration of 5 mM and the oxidation of ABTS^−2 was followed by monitoring the absorbance change at 436 nm. Shown in FIG. 12 is the result of the laccase assay in the presence and absence of 1 mM NaF. The latter inhibits the laccase activity by 95%.

[3] = test system: laccase (Type I copper center); assay: Laccase 600 nm absorbance peak on inhibitor binding; parameters: species or system Trametes versicolor
Excerpt: This conclusion was strengthened by the observation that the binding of tetrachloro-o-quinol to laccase caused a decrease in the amplitude of the laccase 600 nm absorbance peak, dominated by a charge-transfer band involving the Type I copper center and its cysteinyl ligand.

[4] = test system: surface-attached oligo 29 (complementary) vs oligo 28 (non-complementary); assay: Detection of DNA hybridization by CNT device (current vs time at Vg=−0.4 V); details: 30 μM ABTS^−2, 50 mM glycine pH 3, adduct 50 nM (in DNA)
Procedure: Detection of DNA hybridization in a CNT device was assayed as diagramed in FIG. 17. […] In the diagram, two electrodes are indicated, one source electrode (10) and one drain electrode (20), where the electrodes are connected by an electrically conducting path comprising at least one semiconducting carbon nanotube (30). A third electrode (40) generates an electric field to gate the conductance of the CNT. Nucleic acid molecules, functioning as capture moieties (220) are attached to a surface (60) through a silyl butyraldehyde attachment group (230). An oligonucleotide (260) that hybridizes to the capture moiety nucleic acid is attached to the enzyme laccase (270). Laccase oxidizes ABTS^−2 (2,2′ azino-di-(3-ethylbenzthiazoline-sulfonate) at the expense of O2, transferring 4 electrons from 4ABTS^−2 to O2, producing 4ABTS^−1 and H2O. Thus the redox potential of the redox effector (ABTS^−2/ABTS^−1) in solution becomes more positive. This change in effector redox potential oxidizes the CNTs, increasing their p-type conductance. […]
Electron transport through the CNT was first recorded in the 50 mM glycine pH=3 buffer and immediately after flowing 30 μM ABTS^−2 in the same buffer into the flow cell. […]

[5] = test system: surface-bound oligonucleotide 51; assay: Fluorescence signals following hybridization to surface bound oligo; type: binding; details: camera exposure 30 s
Procedure: To increase the specificity of hybridization, the chips were incubated with Sigma #6429 1× Blocking buffer for 1 h. Excess blocking solution was removed by rinsing with 50 mM Na Acetate pH 5.0 plus 100 mM Na2SO4. Surface-bound oligonucleotide 51 was hybridized separately to: • 1) Oligonucleotide 52 (SEQ ID NO:4), acting as a target sequence, hybridized to oligonucleotide 54 (SEQ ID NO:5). Oligonucleotide 54 has 18 nucleotides complementary to the 3′ end of the target oligonucleotide 52 and a fluorescent tag, Alexa Fluor 546, at its 5′ end. Oligonucleotide 52 has at its 5′ end 18 nucleotides complementary to oligonucleotide 51. • 2) Oligonucleotide 52 (SEQ ID NO:4), acting as a target sequence, hybridized to oligonucleotide 50 (SEQ ID NO:5). Oligonucleotide 50 has the same nucleotide sequence as oligonucleotide 54 and was attached to laccase enzyme (lac/oligo 50) as described below in Example 13, This oligonucleotide also has a Cy3 tag at its 3′ end. All oligonucleotides were purchased from Integrated DNA Technologies, Inc. (Coralville, Iowa). Oligos 52 and 54 in (1), and oligos 52 and 50 in (2) were prehybridized in 50 mM Na Acetate pH 5.0 plus 100 mM Na2SO4 for 10 min at 50° C., then allowed to cool to room temperature before adding to the chip with oligo 51.
Hybridizations of the surface bound probe, oligo 51, with the samples listed above were carried out in 50 mM Na Acetate pH 5.0 plus 100 mM Na2SO4. Unbound oligonucleotides were removed by rinsing with Washing Buffer A (Arraylt, Telechem International Inc., Sunnyvale, Calif.). Where a laccase/DNA adduct was used for hybridization, 50 mM Na Acetate pH 5.0 plus 100 mM Na2SO4 was used for the wash. After washing, the chip was covered with a cover slip and observed using a fluorescence microscope. The extent of hybridization was evaluated by measuring fluorescence emission from fluorescent-tagged oligonucleotides attached or not to laccase.
Results of fluorescent signals following hybridizations in 1) and 2) above, using different concentrations of oligos as listed, are given in Table 1. […]

[6] = plots of reciprocal rate vs inhibitor concentration, FIG. 20, read-out: Kd (dissociation constant of the inhibitor, -Ki intersection)

Molecule: CCn1c(=NN=c2sc3cc(S(=O)(=O)O)ccc3n2CC)sc2cc(S(=O)(=O)O)ccc21 [ABTS^−2, 2,2′-azino-bis(3-ethylbenz-thiazoline-6-sulfonate) diammonium salt, reference compound]
- Kd ([1]; substrate of laccase, read-out: dissociation constant, Kd of the laccase substrate): 120 to 240 µM

Molecule: [F-].[Na+] [NaF]
- inhibition of laccase activity [2]: 95%

Molecule: Oc1c(O)c(Cl)c(Cl)c(Cl)c1Cl [Tetrachloro-o-quinol]
- amplitude of the laccase 600 nm absorbance peak on binding [3]: decrease
- activity as an inhibitor of laccase [1]: effective inhibitor
- Kd [1, 6]: 7 to 9 µM

Molecule: Oc1c(Cl)c(Cl)c(O)c(Cl)c1Cl [tetrachloro-p-quinol]
- activity as an inhibitor of laccase [1]: inactive

Molecule: Oc1c(O)c(F)c(F)c(F)c1F [tetrafluoro-o-quinol]
- Kd [1, 6]: 2.5 µM

Molecule: oligo28/laccase adduct: oligo 28 (SEQ ID NO:1) attached via 5′ hydrazide to periodate-treated Trametes versicolor laccase (CGCTGTGATGGTGGCCCC; Laccase enzyme attached through a 5' hydrazide, further chemistry not given here)
- increase in current, complementary vs non-complementary surface oligonucleotide [4]: 3.5 fold

B1: Oligo52 + Oligo54: target oligonucleotide 52 (SEQ ID NO:4) prehybridized to oligonucleotide 54 (SEQ ID NO:5) with 5′ Alexa Fluor 546 tag (nucleic acid)
chain 1: GGGGCCACCATCACAGCGTTTTTTTTTTGGGGCCACCATCACAGCG
chain 2: CGCTGTGATGGTGGCCCC
modifications: Second strand carries a 5' Alexa Fluor 546 label, further chemistry not given here; the letters are possibly those of the target site
- Relative signal amplitude ([5]; 1 nM): 39 and 50
- Relative signal amplitude ([5]; 10 nM): 940 and 990
- Relative signal amplitude ([5]; 100 nM): 1140 and 1690
